The results in this text go back to a melting point compilation (Tetko et al.; mined from patent text by program, amines drawn as free bases though some values may be those of a salt).

SMILES strings stand for the structures.

Regarding `CCc1cc(OC)cc2nc(-c3ccc(OC)cc3)oc12`, the melting point (in general, the temperature, or range, at which the solid turns liquid) was 85 °C.
`CS(=O)(=O)c1c(C(=O)NN=Cc2nccs2)[nH]c2ccccc12` displayed a melting point of more than 280 °C.
The molecule `Brc1cccc(OCc2ccc3ccccc3c2)c1` displayed a melting point of 109 to 112 °C.
For `CCCNC(=O)CCc1ccc2c(c1)c(Cc1ccc(C(=O)O)cc1OC)cn2CCC`, the melting point fell in the range of 68 to 78 °C.
Regarding `CCN(c1cc(C(=O)OC)c(O)c2ncc(Cc3ccc(F)cc3)cc12)S(C)(=O)=O`, the melting point was in the range of 149 to 150 °C.
As for `O=C(Nc1ccccc1)c1cccc(Nc2ccccc2)c1`, the figure is 134 to 135 °C; as for `CN(Cc1ccc(N)cc1)C1CCSCC1`, 88 to 89 °C.
As for `CCCOC1CC2(C)C(CCC3C2CCC2(C)C(C(=O)CSCCCO)CCC32)CC1O` (stereo not drawn), the figure is 133 to 136 °C; as for `N#Cc1cc([N+](=O)[O-])ccc1NC(=O)c1cccc([N+](=O)[O-])c1`, 205 to 206 °C; as for `OC(CNC1CCc2ccccc2C1)COc1cccc(C(F)(F)F)c1` (stereo not drawn), 84 to 89 °C.
`COC(=O)C(=O)c1ccc(C#CCNC(=O)c2ccc3ccccc3c2)cc1`: the melting point is 113 to 114 °C.
The value for `CCCCOc1c(CNC(=O)OC(C)(C)C)n(CC(C)C)c(=O)c2ccc(C(N)=S)cc12` was 189 to 190 °C; that for `Nc1cc(-c2nnc(CCc3cccc(F)c3)o2)ccn1` was 165 to 166 °C; that for `CN1CCC(C2=C(C#N)C(c3cccc4nonc34)c3c[nH]nc3N2)CC1` (stereo not drawn) was more than 270 °C.
`C[Si](C)(C)c1cccs1`: the melting point fell in the range of 61 to 62 °C.
As for `COc1cccc(CNCc2ccc3nc(N)c4ncn(CC(C)C)c4c3c2)c1`, the melting point fell in the range of 125 to 126 °C.
With `Oc1cc2c(cc1O)OCC(c1ccc(F)cc1)C2` (stereo not drawn), the melting point lay within 135 to 137 °C.
For the molecule `O=C(Oc1cccc(F)c1)c1ccc(F)cc1`, the melting point lay in the range of 43.5 to 45.2 °C.
As for `CCCn1cnc2ncnn2c1=S`, the figure is 168 to 169 °C.
The value for `CC=C(c1ccc(N(C)C)cc1)c1ccc(N(C)C)cc1` was 99 to 101 °C; that for `COc1cc2c(cc1OC)CCC(C(=O)N1CCN(C(=O)c3ccc(OC)c(OC)c3OC)CC1)=C2` was 166 to 167 °C; that for `CSc1ccc(C=CC(=O)c2ccc(O)cc2)cc1` was 171 °C.
The value for `CC(C)c1csc(/C=C/c2cc(NC(=O)Cc3ccccc3C(=O)O)ccc2Cl)n1` was 204 to 206 °C.
`COc1cc(Nc2c(C#N)cnc3cc(C#Cc4cnn(CCN5CCOCC5)c4)sc23)c(Cl)cc1Cl`: the melting point is more than 200 °C.
The value for `CC(C)(C)OC(=O)Nc1ccc(F)cc1C(F)(F)F` was 61 to 62 °C; that for `CCOC(=O)c1cn(C2CC2)c2c(Cl)c(F)ccc2c1=O` was 149 to 153 °C; that for `O=C(O)C=CC1CC1(c1cccc(C(F)(F)F)c1)c1cccc(C(F)(F)F)c1` (stereo not drawn) was 147 to 148 °C.
For the molecule `O=C(CNC(=O)OCc1ccc([N+](=O)[O-])cc1)Nc1ccc(C(=O)OCI)cc1`, the melting point was in the range of 162 to 164 °C.
On to `Nc1ncc(-c2ccc([N+](=O)[O-])cc2-c2cccc(Cl)c2Cl)c(N)n1`, for which the melting point was in the range of 237 to 239 °C.
As to `Cn1c(=O)c2c(nc(Cl)n2Cc2ccccc2I)n(C)c1=O`, the melting point was found to be 178 °C.
Turning to `CCOCCOCCOCC1(c2ccc(Oc3cncc4sc(-c5nnc(N)o5)cc34)cc2)CC1`, the melting point lay in the range of 113 to 114 °C.
As for `O=C(Nc1cc(Cl)ncn1)c1ccccc1SSc1ccccc1C(=O)Nc1cc(Cl)ncn1`, the figure is 254 to 256 °C; as for `CC(C)C(NC(=O)c1ccc(C(=O)NCc2ccc(Cl)cc2)cc1)C(=O)N1CCCC1C(=O)NC(C(=O)C(F)(F)F)C(C)C` (mixture of isomers), 87 to 89 °C; as for `Nc1ncc(-c2ccc3c(c2)CCC(N2CCOCC2)CC3)c(N)n1` (stereo not drawn), 118 °C.
`N#CC(Cc1ccccc1)=NNc1ccc(C(O)(C(F)(F)F)C(F)(F)F)cc1` registered a melting point of 164 to 167 °C.
As for `O=C(O)c1ccc2[nH]cc(-c3cc4cccnc4[nH]3)c2c1`, the melting point was more than 300 °C.
As for `CCOC(=O)/C=C/c1ccc(OCCOC)cc1Oc1ncc(C(F)(F)F)cc1Cl`, the figure is 78.2 to 78.5 °C; as for `CCC(=NO)C(C)(C)NCCCN`, 72 to 74 °C.
The value for `CCOC(=O)C1=C(COCc2nnn(CCNc3nc(N)n[nH]3)n2)NC(C)=C(C(=O)OC)C1c1cccc(Cl)c1Cl` (stereo not drawn) was 85 °C; that for `CCCCCCCCCCCCCCCCCCNC(=O)OCC(CNS(=O)(=O)CCCI)NC(=O)NC` (stereo not drawn) was 87 to 89 °C.
The value for `COC(=O)C1C(c2ccc(I)cc2)CC2CCC1N2C` (stereo not drawn) was 101 to 102 °C; that for `Cc1nn(-c2ccc3cc(-c4ccc(C(=O)Cl)cc4)oc3c2)nc1-c1ccccc1` was 275 °C; that for `OC(CNc1ncnc2nc[nH]c12)CN1CCN(C(c2ccc(F)cc2)c2ccc(F)cc2)CC1` (stereo not drawn) was 140 to 170 °C.
Molecule `Cc1nc(-n2ccccc2=O)sc1C(=O)NCc1cccnc1` displayed a melting point of 218 to 220 °C.
Regarding `COc1ccc(CCN(C)CCOc2ccc(NC(=O)c3cccc4c3Nc3ccccc3S4)cc2)cc1OC`, the melting point was determined as 90 °C.
`COC(=O)c1ccc(-c2nc3cc(C(=O)O)ccc3o2)cc1` registered a melting point of 275 to 284 °C.
The value for `O=C(Nc1ccccc1)OCC1c2ccccc2-c2ccccc21` was 243 to 244 °C; that for `COc1c(Cl)ccc(-c2cc(N)c(Cl)c(C(=O)N(C)O)n2)c1F` was 211 to 214 °C; that for `CCOC(=O)C1(Cc2cccnc2)CCCN(C(=O)c2ccc(Nc3nccc(Nc4ccc(F)cc4)n3)cc2)C1` (stereo not drawn) was 119 °C.
The value for `COc1cc([N+](=O)[O-])c(CO)c(OC)c1OC` was 69 to 70 °C.
Turning to `COc1cc(Nc2nccc(-c3ccc(-c4nnn[nH]4)cc3)n2)cc(OC)c1OC`, the melting point was in the range of 246 to 247 °C.
The value for `O=C(O)COc1cccc(CCn2ncc(-c3ccccc3)c2-c2ccccc2)c1` was 133 to 138 °C; that for `COC(=O)c1nc(-c2ccc(Cl)cc2)cc(N(C)C)c1N` was 153 to 154 °C.
The value for `CCCCn1c(=O)c2c(ncn2S(C)(=O)=O)n(CCCC)c1=O` was 98 to 100 °C.
As for `CC(C)(C)OC(=O)NC(Cc1cc2ccccc2s1)C(=O)O` (stereo not drawn), the figure is 128 to 129 °C; as for `O=C1OC(COc2ccc(CCCO)cc2)CN1c1ccc(Cl)cc1` (stereo not drawn), 119 to 120 °C; as for `CSCC[C@H](NC(=O)c1ccc(/C=C(/Cn2ccnc2)c2ccc(F)cc2)cc1)C(=O)O`, 106 °C.
Consider `COC(=O)C(C)(C)CCCOc1cc(C)c(NS(=O)(=O)c2ccc(OC)cc2)cc1C`, for which the melting point was 90 to 92 °C.
For the molecule `N#Cc1ccccc1N1CCN(CNC(=O)c2ccccc2)CC1`, the melting point was 148 to 150 °C.
The value for `Cc1ccc2c(=O)nc(-c3cc(S(C)(=O)=O)cc(CCC(=O)OC(C)(C)C)n3)sc2c1` was 178 °C; that for `Nc1ccc(C(=O)N2Cc3cccn3Cc3ccccc32)cc1` was 166 to 168 °C; that for `CS(=O)(=O)Nc1ccc(C2CCN(c3ccncc3)CC2)cc1` was 269 to 271 °C.
Molecule `CC1(C)CC(c2ccccc2)=NC1=Cc1ccccc1` returned a melting point of 101 to 103 °C.
`COc1ccc(N2CCN(c3c(C)c(C)c4c(c3C)C(C3CCCCC3)C(C)(C)O4)CC2)cc1` (stereo not drawn) displayed a melting point of 119 to 121 °C.
As to `CCN1c2ncc(COc3cccnc3)cc2C(=O)N(C)c2ccc(Cl)nc21`, the melting point fell in the range of 183 to 184 °C.
The value for `COC(=O)CCC(=O)Nc1cccc(COc2ccc(C(C)=O)c(O)c2)c1` was 121 to 123 °C; that for `O=Cc1ccc(N(c2ccccc2)c2ccccc2)cc1` was 129 to 130 °C; that for `COc1cc([N+](=O)[O-])ccc1S(=O)(=O)n1c(=O)n(C2CCCCC2)c2cc(Cl)ccc21` was 185 °C.
As for `CC(C)(COc1ccc(C(N)=O)cn1)NCc1ccccc1`, the figure is 125 to 126 °C; as for `CCOC(=O)c1nc2cc(-c3ccccc3)sc2nc1N`, 173 to 175 °C.
In the case of `COC(=O)c1cc2cc(OCCCl)ccc2s1`, the melting point fell in the range of 116 to 117 °C.
For `COc1ccc2[nH]c(C(C)C)c(/C=C/C(=O)c3ccncc3)c2c1`, the melting point lay within 252 to 253 °C.
The molecule `CC(C)[C@@H](C(N)=O)C(=O)O` came in with a melting point of 174 °C.
Molecule `CCn1c(-c2ccc(N)cc2)n[nH]c1=S` showed a melting point of 240 to 250 °C.
Regarding `Fc1ccc(Cc2ccc(NC3=NCCN3)cc2)cc1`, the melting point lay in the range of 110 to 112 °C.
As for `CC(=O)c1cc(C(C)(C)C)cc(C(=O)O)c1O`, the figure is 159 to 161 °C; as for `CCOC(=O)c1nc(N)sc1-c1cn2c(C)cccc2n1`, 234 to 236 °C.
For the molecule `O=[N+]([O-])c1ccc2oc(-c3sccc3CBr)nc2c1`, the melting point was in the range of 146 to 148 °C.
As to `CCOC(=O)N1N=C(c2ccc([N+](=O)[O-])cc2)c2cc(Cl)c(Cl)cc2CC1C` (stereo not drawn), the melting point fell in the range of 106 to 108 °C.
On to `COc1cc(N(C)c2nccc(-c3ccncc3)n2)cc(OC)c1OC`, for which the melting point is 139 °C.
As for `CCOC(=O)c1cn(CC)c2c(F)c(C)c(F)cc2c1=O`, the figure is 147 to 150 °C; as for `CC(=O)OC1CSC(Oc2cncc(-c3ccc(C)cc3)c2)C(OC(C)=O)C1OC(C)=O` (stereo not drawn), 160 to 162 °C.
In turn, `CCOC(=O)C=Cc1cc([N+](=O)[O-])ccc1Cl` returned a melting point of 138 to 140 °C.
The molecule `c1ccc(COc2nn3c(-c4cc(-c5cccs5)on4)nnc3c3ccccc23)nc1` yielded a melting point of 213 to 215 °C.
Molecule `Cc1sc(-c2ccccc2)nc1COc1ccc(Cn2cc(CC(=O)O)c(-c3ccccc3)n2)cn1` showed a melting point of 140 to 141 °C.
Turning to `COc1cc(/C=C/c2cc(OC)c(OC)c(OC)c2)cc(OC)c1OC`, the melting point is 220 °C.
Molecule `CC(C)(C)OC(=O)/C=C/c1cccc(-c2nc(=O)c3ccccc3s2)n1` had a melting point of 176 to 178 °C.
As for `CCOC(=O)CC1(c2ccccc2OCC)C(=O)Nc2ccc(Cl)cc21` (stereo not drawn), the figure is 181 °C.
